Results taken from US20250332173A1, “COMPOUNDS AND METHODS FOR MODULATING NUCLEIC ACID SPLICING” (REMIX THERAPEUTICS INC., priority 2021, published 2025).

What was measured:
Type in all cases: cell-based, human
Target C = test: RT-qPCR splicing assay panel, Target C canonical junction (CJ) mRNA; conditions: Homo sapiens; canonical junction qPCR panel, Table 5; read-out: Target C (decrease in CJ mRNA levels, IC50)
Summary of the method: (§1)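 A673 cells (DMEM/10% FBS) or K562 cells (IMDM/10% FBS) were treated 24 h at 37° C. with 11-point 3-fold dilutions (top 10 uM, ≤0.25% DMSO). Canonical-junction mRNA was quantified in lysates by RT-qPCR, normalized to GAPDH, GUSB or PPIA.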

HTT = test: HiBiT protein abundance assay, HTT HiBiT K562 cell line; conditions: HiBiT K562 cell line, 24 hours, top dose 10 μM; read-out: Effect on protein abundance, HTT (IC50 category)
Summary of the method: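 Endogenous targets in K562 knock-in lines carried a HiBiT tag and were treated for 24 h at 37 °C with 10-point 3-fold dilutions (top 10 μM final, DMSO ≤0.25%). Abundance was read as lytic Nano-Glo HiBiT luminescence. IC50 came from a four-parameter logistic fit of normalized response.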

SMN2 mRNA = test: RT-qPCR splicing assay, SMN2 canonical junction (CJ) mRNA; conditions: Homo sapiens; canonical junction qPCR panel, Table 5; read-out: SMN2 (decrease in CJ mRNA levels, IC50)
Summary of the method: as §1

Row | Structure (SMILES) | IC50 (Target C) | IC50 (HTT) | IC50 (SMN2 mRNA)
1 | Cc1cn2cc(-c3cc(O)c4c(=O)n(C5CCNCC5)ccc4n3)cc(F)c2n1 [Compound 1448] | 1 to 10 µM | 100 to 1000 nM | < 100 nM
2 | Cc1c(O)c(-c2ccc3c(=O)n([C@H]4CCNC4)ccc3n2)cc2cn(C)nc12 [Compound 1449, 2-(6-hydroxy-2,7-dimethyl-indazol-5-yl)-6-[(3S)-pyrrolidin-3-yl]-1,6-naphthyridin-5-one] | > 10 µM | 1000 to 10000 nM | < 100 nM
3 | Cc1c(O)c(-c2ccc3c(=O)n([C@@H]4CCNC4)ccc3n2)cc2cn(C)nc12 [Compound 1450, 2-(6-hydroxy-2,7-dimethyl-indazol-5-yl)-6-[(3R)-pyrrolidin-3-yl]-1,6-naphthyridin-5-one] | > 10 µM | 1000 to 10000 nM | < 100 nM
4 | Cn1cc2cc(-c3ccc4c(=O)n([C@H]5CCNC5)ccc4n3)c(O)c(F)c2n1 [Compound 1451, 2-(7-fluoro-6-hydroxy-2-methyl-indazol-5-yl)-6-[(3S)-pyrrolidin-3-yl]-1,6-naphthyridin-5-one] | 0.1 to 1 µM | 100 to 1000 nM | < 100 nM
5 | Cn1cc2cc(-c3ccc4c(=O)n([C@@H]5CCNC5)ccc4n3)c(O)c(F)c2n1 [Compound 1452, 2-(7-fluoro-6-hydroxy-2-methyl-indazol-5-yl)-6-[(3R)-pyrrolidin-3-yl]-1,6-naphthyridin-5-one] | 0.1 to 1 µM | 100 to 1000 nM | < 100 nM
6 | Cc1c(O)c(-c2ncc3c(=O)n([C@@H]4C[C@@H](C)N[C@@H](C)C4)ccc3n2)cc2cn(C)nc12 [Compound 1453, 6-[(2S,6R)-2,6-dimethyl-4-piperidyl]-2-(6-hydroxy-2,7-dimethyl-indazol-5-yl)pyrido[4,3-d]pyrimidin-5-one] | > 10 µM | 1000 to 10000 nM | < 100 nM
7 | Cc1c(O)c(-c2ncc3c(=O)n(C4C[C@@H](C)N[C@H](C)C4)ccc3n2)cc2cn(C)nc12 (stereo partly drawn) [Compound 1454, 6-[(2R,6R)-2,6-dimethyl-4-piperidyl]-2-(6-hydroxy-2,7-dimethyl-indazol-5-yl)pyrido[4,3-d]pyrimidin-5-one] | 1 to 10 µM | 100 to 1000 nM | < 100 nM

Second part, the compound after the results:

Row | IC50 (Target C) | IC50 (HTT) | IC50 (SMN2 mRNA) | Structure (SMILES)
8 | 1 to 10 µM | 100 to 1000 nM | < 100 nM | Cc1c(O)c(-c2ncc3c(=O)n(C4C[C@H](C)N[C@@H](C)C4)ccc3n2)cc2cn(C)nc12 (stereo partly drawn) [Compound 1455, 6-[(2S,6S)-2,6-dimethyl-4-piperidyl]-2-(6-hydroxy-2,7-dimethyl-indazol-5-yl)pyrido[4,3-d]pyrimidin-5-one]
9 | > 10 µM | 1000 to 10000 nM | 100 to 1000 nM | Cc1cn2cc(-c3cc(F)c4c(=O)n([C@@H]5CNC[C@H]5F)ccc4c3)cc(F)c2n1 [Compound 1456]
10 | 1 to 10 µM | 100 to 1000 nM | < 100 nM | Cc1cn2cc(-c3ncc4c(=O)n([C@@H]5CCNC6(CC6)C5)ccc4n3)cc(F)c2n1 [Compound 1457, 6-[(7R)-4-azaspiro[2.5]octan-7-yl]-2-(8-fluoro-2-methyl-imidazo[1,2-a]pyridin-6-yl)pyrido[4,3-d]pyrimidin-5-one]
